Measured values reported in patent publication US20100105651A1, “ANTAGONISTS OF SNS SODIUM CHANNELS” (priority 2005, published 2010).
Structures can show the parent of a compound that is named as a salt.

Target: T1, human NaV1.8 (hNaV1.8) ion channel (Homo sapiens, UniProt Q9Y5Y9)
T1 construct: expressed in transfected cells
Test: Inhibition of Human NaV1.8 stably expressed in SH-SY-5Y cells (membrane potential dye fluorescence assay)
Format: cell-based
Details: SH-SY-5Y cells stably expressing hNaV1.8; FLIPR membrane potential dye; 10 μM pyrethroid, 250 nM TTX; test range 100 μM-0.05 μM; read-out: hNav1.8 IC50

T1 sequence (Q9Y5Y9 whole entry): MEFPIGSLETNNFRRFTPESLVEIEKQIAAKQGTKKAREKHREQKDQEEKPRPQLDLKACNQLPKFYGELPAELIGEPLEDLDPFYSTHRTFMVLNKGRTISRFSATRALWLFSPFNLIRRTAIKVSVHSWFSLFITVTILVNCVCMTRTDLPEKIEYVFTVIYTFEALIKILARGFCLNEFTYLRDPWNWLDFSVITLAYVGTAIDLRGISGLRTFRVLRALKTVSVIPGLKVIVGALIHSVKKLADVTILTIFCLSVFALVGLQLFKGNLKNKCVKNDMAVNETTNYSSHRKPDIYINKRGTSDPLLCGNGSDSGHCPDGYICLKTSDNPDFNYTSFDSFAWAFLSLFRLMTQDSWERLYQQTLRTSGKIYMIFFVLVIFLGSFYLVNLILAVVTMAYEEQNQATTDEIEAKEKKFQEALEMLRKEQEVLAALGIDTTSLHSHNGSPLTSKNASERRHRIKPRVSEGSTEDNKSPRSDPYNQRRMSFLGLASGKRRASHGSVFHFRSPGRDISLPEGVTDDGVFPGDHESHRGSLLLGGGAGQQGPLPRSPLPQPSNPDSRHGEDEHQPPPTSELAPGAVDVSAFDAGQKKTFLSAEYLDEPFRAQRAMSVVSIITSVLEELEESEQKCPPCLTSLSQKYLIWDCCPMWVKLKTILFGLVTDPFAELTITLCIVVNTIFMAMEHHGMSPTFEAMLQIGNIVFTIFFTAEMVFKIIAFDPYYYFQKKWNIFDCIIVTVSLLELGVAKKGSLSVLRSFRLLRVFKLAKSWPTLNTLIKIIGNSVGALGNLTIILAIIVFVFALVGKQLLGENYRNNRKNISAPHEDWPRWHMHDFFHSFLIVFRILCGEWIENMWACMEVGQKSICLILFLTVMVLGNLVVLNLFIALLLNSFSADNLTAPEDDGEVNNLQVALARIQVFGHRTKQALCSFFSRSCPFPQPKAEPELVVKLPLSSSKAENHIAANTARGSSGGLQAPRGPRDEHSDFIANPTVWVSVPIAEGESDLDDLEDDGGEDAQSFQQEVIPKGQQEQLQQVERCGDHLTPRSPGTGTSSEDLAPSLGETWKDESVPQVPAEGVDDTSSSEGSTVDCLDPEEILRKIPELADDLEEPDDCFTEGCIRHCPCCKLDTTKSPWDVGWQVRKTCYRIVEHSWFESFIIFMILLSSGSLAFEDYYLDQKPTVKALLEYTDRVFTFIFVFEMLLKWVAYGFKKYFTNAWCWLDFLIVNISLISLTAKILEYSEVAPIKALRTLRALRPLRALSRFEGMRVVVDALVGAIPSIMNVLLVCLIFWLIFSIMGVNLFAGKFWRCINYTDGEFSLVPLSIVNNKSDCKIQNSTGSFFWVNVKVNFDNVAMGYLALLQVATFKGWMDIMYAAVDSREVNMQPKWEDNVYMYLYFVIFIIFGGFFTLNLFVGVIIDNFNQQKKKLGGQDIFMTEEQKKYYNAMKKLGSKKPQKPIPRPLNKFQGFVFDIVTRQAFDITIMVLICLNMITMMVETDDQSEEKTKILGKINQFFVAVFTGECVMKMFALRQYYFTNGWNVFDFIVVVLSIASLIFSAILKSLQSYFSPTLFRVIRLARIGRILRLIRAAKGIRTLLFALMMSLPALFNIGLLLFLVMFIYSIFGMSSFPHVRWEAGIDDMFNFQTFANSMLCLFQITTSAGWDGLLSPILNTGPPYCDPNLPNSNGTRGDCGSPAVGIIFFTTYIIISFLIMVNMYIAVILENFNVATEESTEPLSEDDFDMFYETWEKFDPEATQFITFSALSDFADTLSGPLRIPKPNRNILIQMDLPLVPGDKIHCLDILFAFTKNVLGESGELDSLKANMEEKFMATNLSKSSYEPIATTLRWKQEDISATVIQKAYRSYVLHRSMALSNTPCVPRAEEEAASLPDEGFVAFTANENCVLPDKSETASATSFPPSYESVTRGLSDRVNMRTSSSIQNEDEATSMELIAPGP

SMILES | IC50 [nM]
CCCCOc1ccc(NC(=O)N2CC(NC(C)c3ccccc3Cl)C2)cc1 (centres unmarked) [Example 71, 3-[1-(2-Chloro-phenyl)-ethylamino]-azetidine-1-carboxylic acid (4-butoxy-phenyl)-amide] | 770
COc1ccc2c(c1)CCC2NC1CN(C(=O)Nc2ccc(Oc3cccc(F)c3)cc2)C1 (centres unmarked) [Example 134, 3-(5-Methoxy-indan-1-ylamino)-azetidine-1-carboxylic acid [4-(3-fluoro-phenoxy)-pheny]-amide] | 170
CC(NC1CN(C(=O)Nc2ccc(Oc3ccccc3)cc2)C1)c1ccc(OC(F)(F)F)cc1 (centres unmarked) [Example 70, 3-[1-(4-Trifluoromethoxy-phenyl)-ethylamino]-azetidine-1-carboxylic acid (4-phenoxy-phenyl)-amide] | 22100
O=C(Nc1ccc(Oc2cccc(F)c2)cc1)N1CC(NC2CCc3cc(F)ccc32)C1 (centres unmarked) [Example 13, 3-(5-Fluoro-indan-1-ylamino)-azetidine-1-carboxylic acid [4-(3-fluoro-phenoxy)-phenyl]-amide] | 310
O=C(Nc1ccc(Oc2ccc(F)cc2)cc1)N1CC(NCc2c(F)cccc2F)C1 [Example 129, 3-(2,6-Difluoro-benzylamino)-azetidine-1-carboxylic acid [4-(4-fluoro-phenoxy)-phenyl]-amide] | 1490
Cc1ccccc1C(C)N(C)C1CN(C(=O)Nc2ccc(Oc3ccccc3)cc2)C1 (centres unmarked) [Example 62, 3-[Methyl-(1-o-tolyl-ethyl)-amino]-azetidine-1-carboxylic acid (4-phenoxy-phenyl)-amide] | 720
CC(c1ccc(Oc2ccccc2)cc1)N(C)C1CN(C(=O)Nc2ccc(C(F)(F)F)cc2)C1 (centres unmarked) [Example 90, 3-{Methyl-[1-(4-phenoxy-phenyl)-ethyl]-amino}-azetidine-1-carboxylic acid (4-trifluoromethyl-phenyl)-amide] | 1430
CC(NC1CN(C(=O)Cc2ccc(Oc3ccccc3)cc2)C1)c1ccccc1 (centres unmarked) [Example 46, 2-(4-Phenoxy-phenyl)-1-[3-(1-phenyl-ethylamino)-azetidin-1-yl]-ethanone] | 1070
CCCCOc1ccc(NC(=O)N2CC(N(C)C(C)c3ccc(F)cc3)C2)cc1 (centres unmarked) [Example 86, 3-{[1-(4-Fluoro-phenyl)-ethyl]-methyl-amino}-azetidine-1-carboxylic acid (4-butoxy-phenyl)-amide] | 3530
O=C(Nc1ccc(Oc2ccc(F)cc2)cc1)N1CC(NC2CCc3cc(F)ccc32)C1 (centres unmarked) [Example 7, 3-(5-Fluoro-indan-1-ylamino)-azetidine-1-carboxylic acid [4-(4-fluoro-phenoxy)-phenyl]-amide] | 250
Cc1ccccc1C(C)NC1CN(C(=O)Nc2cccc(Oc3ccccc3)c2)C1 (centres unmarked) [Example 106, 3-(1-o-Tolyl-ethylamino)-azetidine-1-carboxylic acid (3-phenoxy-phenyl)-amide] | 560
CN(C1CN(C(=O)Nc2ccc(Oc3ccccc3)cc2)C1)C1CCc2cc(F)ccc21 (centres unmarked) [Example 38, 3-[(5-Fluoro-indan-1-yl)-methyl-amino]-azetidine-1-carboxylic acid (4-phenoxy-phenyl)-amide] | 560
Cc1ccccc1C(C)NC1CN(C(=O)Nc2ccc(Oc3ccccc3)cc2)C1 (centres unmarked) [Example 61, 3-(1-o-Tolyl-ethylamino)-azetidine-1-carboxylic acid (4-phenoxy-phenyl)-amide] | 750
Cc1ccc(C(C)NC2CN(C(=O)Nc3ccc(Oc4ccccc4)cc3)C2)cc1 (centres unmarked) [Example 121, 3-(1-p-Tolyl-ethylamino)-azetidine-1-carboxylic acid (4-phenoxy-phenyl)-amide] | 400
Cc1ccccc1C(C)NC1CN(C(=O)Nc2ccc(Oc3ccc(F)cc3)cc2)C1 (centres unmarked) [Example 108, 3-(1-o-Tolyl-ethylamino)-azetidine-1-carboxylic acid [4-(4-fluoro-phenoxy)-phenyl]-amide] | 270
CC(NC(=O)N1CC(NC2Cc3ccccc3C2)C1)c1ccc(C(F)(F)F)cc1 (centres unmarked) [Example 3, 3-(Indan-2-ylamino)-azetidine-1-carboxylic acid [1-(4-trifluoromethyl-phenyl)-ethyl]-amide] | 2980
CC(c1ccc(F)cc1)N(C)C1CN(C(=O)Nc2cccc(C(F)(F)F)c2)C1 (centres unmarked) [Example 95, 3-{[1-(4-Fluoro-phenyl)-ethyl]-methyl-amino}-azetidine-1-carboxylic acid (3-trifluoromethyl-phenyl)-amide] | 4550
O=C(Nc1ccc(C(F)(F)F)cc1)N1CC(NC2CCc3ccccc3C2)C1 (centres unmarked) [Example 32, 3-(1,2,3,4-Tetrahydro-naphthalen-2-ylamino)-azetidine-1-carboxylic acid (4-trifluoromethyl-phenyl)-amide] | 450
O=C(Nc1ccc(Oc2ccc(F)cc2)c(F)c1)N1CC(NC2CCc3cc(Br)ccc32)C1 (centres unmarked) [Example 16, 3-(5-Bromo-indan-1-ylamino)-azetidine-1-carboxylic acid [3-fluoro-4-(4-fluoro-phenoxy)-phenyl]-amide] | 1720

SMILES | IC50 [nM]
O=C(Nc1ccc(OCc2ccccc2)cc1)N1CC(NCc2c(F)cccc2F)C1 [Example 52, 3-(2,6-Difluoro-benzylamino)-azetidine-1-carboxylic acid (4-benzyloxy-phenyl)-amide] | 870
CC(NC1CN(C(=O)Nc2cccc(Oc3ccccc3)c2)C1)c1ccccc1Cl (centres unmarked) [Example 102, 3-[1-(2-Chloro-phenyl)-ethylamino]-azetidine-1-carboxylic acid (3-phenoxy-phenyl)-amide] | 800
Cc1cc(F)ccc1C(C)NC1CN(C(=O)Nc2cccc(C(F)(F)F)c2)C1 (centres unmarked) [Example 113, 3-[1-(4-Fluoro-2-methyl-phenyl)-ethylamino]-azetidine-1-carboxylic acid (3-trifluoromethyl-phenyl)-amide] | 2840
CC(NC1CN(C(=O)Nc2ccc(Oc3ccccc3)cc2)C1)c1ccc(Oc2ccccc2)cc1 (centres unmarked) [Example 77, 3-[1-(4-Phenoxy-phenyl)-ethylamino]-azetidine-1-carboxylic acid (4-phenoxy-phenyl)-amide] | 1090
Cc1ccccc1C(C)NC1CN(C(=O)Nc2ccc(C(F)(F)F)cc2)C1 (centres unmarked) [Example 104, 3-(1-o-Tolyl-ethylamino)-azetidine-1-carboxylic acid (4-trifluoromethyl-phenyl)-amide] | 2540
O=C(Nc1ccc(Oc2ccccc2)cc1)N1CC(NC2CCc3ccccc32)C1 (centres unmarked) [Example 30, 3-(Indan-1-ylamino)-azetidine-1-carboxylic acid (4-phenoxy-phenyl)-amide] | 260
O=C(Nc1ccc(Oc2ccccc2)cc1)N1CC(NC2CCc3cc(F)ccc32)C1 (centres unmarked) [Example 137, 3-(5-Fluoro-indan-1-ylamino)-azetidine-1-carboxylic acid (4-phenoxy-phenyl)-amide fumarate salt] | 270
CC(NC1CN(C(=O)Nc2ccc(OC(F)(F)F)cc2)C1)c1ccc(F)cc1 (centres unmarked) [Example 72, 3-[1-(4-Fluoro-phenyl)-ethylamino]-azetidine-1-carboxylic acid (4-trifluoromethoxy-phenyl)-amide] | 3210
O=C(Nc1ccc(Oc2ccc(F)cc2)cc1)N1CC(NC2CCc3cc(Cl)ccc32)C1 (centres unmarked) [Example 18, 3-(5-Chloro-indan-1-ylamino)-azetidine-1-carboxylic acid [4-(4-fluoro-phenoxy)-phenyl]-amide] | 620
CCCCOc1ccc(NC(=O)N2CC(N(C)C(C)c3ccccc3C)C2)cc1 (centres unmarked) [Example 89, 3-[Methyl-(1-o-tolyl-ethyl)-amino]-azetidine-1-carboxylic acid (4-butoxy-phenyl)-amide] | 580
Cc1cc(F)ccc1C(C)N(C)C1CN(C(=O)Nc2ccc(Oc3ccccc3)cc2)C1 (centres unmarked) [Example 117, 3-{[1-(4-Fluoro-2-methyl-phenyl)-ethyl]-methyl-amino}-azetidine-1-carboxylic acid (4-phenoxy-phenyl)-amide] | 890
CC(NC1CN(C(=O)Nc2ccc(Oc3ccccc3)cc2)C1)c1c(F)cccc1F (centres unmarked) [Example 130, 3-[1-(2,6-Difluoro-phenyl)-ethylamino]-azetidine-1-carboxylic acid (4-phenoxy-phenyl)-amide] | 750
CN(C1CN(C(=O)Nc2ccc(C(F)(F)F)cc2)C1)C1CCc2cc(F)ccc21 (centres unmarked) [Example 39, 3[(5-Fluoro-indan-1-yl)-methyl-amino]-azetidine-1-carboxylic acid (4-trifluoromethyl-phenyl)-amide] | 2020
CC1(NC2CCc3ccccc3C2)CN(C(=O)Nc2ccc(C(F)(F)F)cc2)C1 (centres unmarked) [Example 42, 3-Methyl-3-(1,2,3,4-tetrahydro-naphthalen-2-ylamino)-azetidine-1-carboxylic acid (4-trifluoromethyl-phenyl)-amide] | 690
CC(c1ccc(F)cc1)N(C)C1CN(C(=O)Nc2cccc(Oc3ccccc3)c2)C1 (centres unmarked) [Example 109, 3-{[1-(4-Fluoro-phenyl)-ethyl]-methyl-amino}-azetidine-1-carboxylic acid (3-phenoxy-phenyl)-amide] | 470
O=C(Nc1ccc(Oc2ccccc2)cc1)N1CC(NC2CCc3ccccc3C2)C1 (centres unmarked) [Example 34, 3-(1,2,3,4-Tetrahydro-naphthalen-2-ylamino)-azetidine-1-carboxylic acid (4-phenoxy-phenyl)-amide] | 100
CC(NC1CN(C(=O)Nc2cccc(Oc3ccccc3)c2)C1)c1ccc(F)cc1Cl (centres unmarked) [Example 58, 3-[1-(2-Chloro-4-fluoro-phenyl)-ethylamino]-azetidine-1-carboxylic acid (3-phenoxy-phenyl)-amide] | 1120
CC(c1ccc(F)cc1)N(C)C1CN(C(=O)Nc2ccc(Oc3ccccc3)cc2)C1 (centres unmarked) [Example 91, 3-{[1-(4-Fluoro-phenyl)-ethyl]-methyl-amino}-azetidine-1-carboxylic acid (4-phenoxy-phenyl)-amide] | 690
NC(=O)C(NC1CN(C(=O)Nc2ccc(Oc3ccccc3)cc2)C1)c1ccccc1 (centres unmarked) [Example 55, 3-[(Carbamoyl-phenyl-methyl)-amino]-azetidine-1-carboxylic acid (4-phenoxy-phenyl)-amide] | 7710
